Holding throughout (type): in vivo, rat
The test system of assay [1] is rats with percussion-TBI. The experiment in a line: Percussion-TBI model: spontaneous forelimb use and spontaneous vertical exploration. The text has this:
Young adult male Long-Evans rats, 240-280 gm, were studied. Rats were anesthetized (Ketamine and Xylazine) and physiological parameters including temperature and blood gases were maintained within appropriate physiological ranges. With the head fixed in a stereotaxic frame, a 6-mm circular craniectomy was created abutting the sagittal and lambdoidal sutures. A posterior location was chosen to emphasize damage to underlying hippocampus (Vink et al., 2001; Floyd et al., 2002). […] Sham controls underwent craniectomy without percussion.
Spontaneous forelimb use (SFU) was quantified and spontaneous vertical exploration (SVE) was quantified during 7 days post-TBI. SFU measures sensorimotor asymmetry (Schallert et al., 2000) whereas SVE measures not only vestibulomotor function but also time spent in exploratory activity.

The subject of assay [2] is rats with hemi-cervical spinal cord contusion (SCI). The experiment in a line: SCI model: extravasated blood in cord (tissue blood). The method, then:
(§1) SCI injury model. This study was performed in accordance with the guidelines of the Institutional Animal Care and Use Committee. Adult female Long-Evans rats (275-350 gm) were anesthetized (Ketamine, 60 mg/kg plus Xylazine, 7.5 mg/kg, i.p.). The dura at C4-5 was exposed via a left hemilaminectomy. A hemi-cervical spinal cord contusion was created using a blunt force impactor (1.3-mm impactor head driven by a 10 gm weight dropped vertically 25 mm) (Soblosky et al., 2001; Gensel et al., 2006). After SCI, animals were given 10 ml of glucose-free normal saline s.q. Rectal temperature was maintained at ˜37° C. using a servo-controlled warming blanket.
(§2) For in vivo gene suppression of SUR1, we used oligodeoxynucleotides that were phosphorothioated at 4 distal bonds to protect against endogenous nucleases (35).
Tissue blood. Rats were sacrificed at various times after SCI (n=5-11 rats/group), were perfused with heparinized saline to remove intravascular blood, and 5-mm segments of cord encompassing the lesion were homogenized and processed as described (Choudhri et al., 1997).

Assay [3] has the same test system. The experiment in a line: SCI model: neurobehavioral assessment (inclined plane, paw placement, rearing). The procedure:
as §1, §2
Neurobehavioral Assessment. All measurements were performed by blinded evaluators. Performance on the inclined plane was evaluated as described (Rivlin and Tator, 1977). To assess paw placement and vertical exploration (rearing) (Nikulina et al., 2004) animals were videotaped while in a translucent cylinder (19×20 cm). Rearing was quantified as the number of seconds spent with both front paws elevated above shoulder-height during a 3-min period of observation.

Where [4] appears, read: 1, 3 and 7 d post-SCI, glibenclamide vs vehicle.

SMILES strings stand for the structures.

For `COc1ccc(Cl)cc1C(=O)NCCc1ccc(S(=O)(=O)NC(=O)NC2CCCCC2)cc1` [glibenclamide], in assay [1] (1, 2 and 7 days post-TBI, vs vehicle controls), the “spontaneous vertical exploration (SVE)” value is listed as “significantly greater”. For the same compound, the “spontaneous use of the forelimb contralateral to the injury” value in assay [1] (2 days post-TBI) is given as 16.5±3.4%. Also, the “hemorrhage in cords (visual)” value in assay [2] (24 h post-SCI, glibenclamide 200 ng/h s.q. vs vehicle) is “visibly less hemorrhage”. Besides, in assay [2] (during the 24 h after injury, glibenclamide 200 ng/h s.q. vs vehicle), the “extravasated blood in tissue homogenates” value is given as “little increase”. Further, the PHN entry in assay [2] (following SCI (summary)) is recorded as “significantly reduced”. Also, in assay [3] (setting [4]), the “performance on inclined plane” value is listed as “significantly better performance” and the “vertical exploratory behavior (rearing), performance” value is reported as “significantly better performance”. Moreover, the “vertical exploratory behavior (rearing)” value in assay [3] (1 d post-SCI, additional groups, 14-15 rats/group, 3-min observation) came to 42 ± 7 s. Moreover, the ipsilateral paw placement entry in assay [3] (1 d post-SCI, glibenclamide vs vehicle) is “significantly better performance”. In addition, the “mobility / exploratory behavior” value in assay [3] (post-SCI, vs vehicle-treated rats) is “typically ambulatory and often exhibited proficient exploratory behavior”.

(Values after US9375438B2, “Inhibitors of NCCa-ATP channels for therapy” (University of Maryland, Baltimore, priority 2007, dated 2016).)
